Experimental data: patent publication US12319640B2, “Cyclic diones as herbicidal compounds” (SYNGENTA CROP PROTECTION AG, priority 2019, dated 2025)

Legend:
Assay in all cases: Glasshouse herbicide test, pre- and post-emergence
Assay type in all cases: in vivo
Details in all cases: 250 g/h, evaluated after 13 days, five-point scale
[1] = system: Alopecurus myosuroides (ALOMY)
Outline: (§1)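 Pots were sprayed 1 day (pre-emergence) or 8 days (post-emergence) after sowing at 250 g/h, formulated in acetone/water 50:50 with 0.5% Tween 20. Plants were grown in a glasshouse at 24/16 °C day/night, 14 h light and 65% humidity, then damage was scored after 13 days on a five-point scale (5=80-100% … 1=0-19%).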

[2] = system: Avena fatua (AVEFA)
Outline: as §1

[3] = system: Echinochloa crus-galli (ECHCG)
Outline: as §1

[4] = system: Lolium perenne (LOLPE)
Outline: as §1

[5] = system: Setaria faberi (SETFA)
Outline: as §1

CC#Cc1cc(C)c(C2=C(OC(=O)OC)CC3(CCC(C(=O)NC)CC3)CC2=O)c(C)c1 (stereo not shown) [Compound P1.001]
5 (5=80-100%): percentage damage caused to the plant, ALOMY POST ([1]; post-emergence) | percentage damage caused to the plant, ALOMY PRE ([1]; pre-emergence) | percentage damage caused to the plant, AVEFA POST ([2]; post-emergence) | percentage damage caused to the plant, AVEFA PRE ([2]; pre-emergence) | percentage damage caused to the plant, ECHCG POST ([3]; post-emergence) | percentage damage caused to the plant, ECHCG PRE ([3]; pre-emergence) | percentage damage caused to the plant, LOLPE POST ([4]; post-emergence) | percentage damage caused to the plant, LOLPE PRE ([4]; pre-emergence) | percentage damage caused to the plant, SETFA POST ([5]; post-emergence) | percentage damage caused to the plant, SETFA PRE ([5]; pre-emergence)
